This is an account of results in PubChem BioAssay AID743396 (Broad Institute, 2014).

The source made the active and inactive calls.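 The calls were made as follows: active = fitted curve reaches a 40% rise in fluorescent cells at or below the top valid dose; inactive = opposite-direction effect, or the rest.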

The nature of one assay: autofluorescent compounds in non-GFP fibroblasts, dose response, artefact control for X-chromosome reactivation project, imaging, mTEFS fibroblasts, cherry-pick (AID 743396).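 Also: raw share of Hoechst-counted cells scored GFP positive without control normalization.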 The following applies: mTEFS fibroblasts autofluorescence, GFP-channel imaging, 3 days; at 19.5 µM (top of the series).
Turning to `COCCCn1c(N)c(C(=O)Nc2ccccc2)c2nc3ccccc3nc21`, the % fluorescent cells increase is 0.01% (inactive).

The assay is the same for the next values; noted with them: mTEFS fibroblasts autofluorescence, GFP-channel imaging, 3 days; at 19.5 µM (top of the series); cells pretreated with 5-aza-dC.
Consider `O=C(O)c1ccccc1CSc1nc2ccccc2n1Cc1ccccc1C(=O)O`, for which the % fluorescent cells increase is 0.253% (inactive). Still for that read-out and setting: the result for `CC(OCCN(C)C)C(=O)C12CC3CC(CC(C3)C1)C2` (stereo not drawn) reads 0.039% (inactive); that for `O=C1c2ccc3c4c(ccc(c24)C(=O)N1c1cccc(O)c1)C(=O)N(c1cccc(O)c1)C3=O`, -0.003% (inactive); that for `Cc1cccc(NC(=O)Cn2cnc3c(oc4nc5c(cc43)COC(C)(C)C5)c2=O)c1`, 2.35% (inactive). Same read-out and setting: the result for `CCOC(=O)N1CCN(C(=O)Cn2ccc3c(OC)cccc3c2=O)CC1` reads 0.012% (inactive). Regarding `O=C1C2C3C=CC(CNS(=O)(=O)c4ccccc4[N+](=O)[O-])(O3)C2C(=O)N1c1ccccc1` (stereo not drawn), the % fluorescent cells increase was 0.044% (inactive). The same measure, in the same setting: the result for `COc1cccc(CNC(=O)c2cc(S(=O)(=O)N3CCOCC3)cn2C)c1` reads 0.274% (inactive); that for `O=C(Nc1ccc(F)cc1)N1CC(=O)N2[C@H](CO)[C@H](c3ccc(C#Cc4ccc(F)cc4)cc3)[C@@H]2C1`, -0.166% (inactive). As to `CN(C)c1ccc(NC2=C(Cl)C(=O)c3ccccc3C2=O)cc1`, the % fluorescent cells increase was -0.006% (inactive). Regarding `C[C@@H]1ON(C)[C@H]2C[C@H]3c4cc(-c5cccc(F)c5)ccc4CCN3C(=O)[C@@H]12`, the % fluorescent cells increase is 0% (inactive). Same read-out and setting: the result for `COc1cc(NS(=O)(=O)c2ccc3ccccc3c2)c2ncccc2c1` reads 0% (inactive); that for `CC(=O)N[C@@H](CC(=O)O)C(=O)O`, 0.642% (inactive). For the compound `Cc1ccc(Cl)cc1NC(=O)CCC(=O)O`, the % fluorescent cells increase was -0.002% (inactive). For the compound `O=c1[nH]cnc2c1ncn2[C@H]1CC[C@@H](CO)O1`, the % fluorescent cells increase was 0.722% (inactive). Same read-out and setting: for `CN(C)CCCNC(=O)/C(=C\c1ccc(-c2ccc(Br)cc2)o1)NC(=O)c1ccccc1` the value was -0.006% (inactive); for `Cc1ccc(S(=O)(=O)Nc2cccc3c2O[C@H](CN(C)C(=O)Nc2cccc4ccccc24)[C@H](C)CN([C@H](C)CO)C3=O)cc1`, 0.048% (inactive). The same measure, in the same setting: the result for `COc1ccc(NC(=O)Nc2ccc3c(c2)CC(=O)N([C@H](C)CO)C[C@H](C)[C@@H](CN(C)S(=O)(=O)c2ccc(F)cc2)O3)cc1` reads 2.89% (inactive); that for `COc1cc(CNc2nc3ccccc3n2C)cc(OC)c1OC`, 0% (inactive); that for `COc1ccc(NC(=O)Nc2ccc3c(c2)C(=O)N([C@H](C)CO)C[C@H](C)[C@H](CN(C)Cc2ccc4c(c2)OCO4)O3)cc1`, -0.166% (inactive). Still for that read-out and setting: for `CC(=O)c1c(COC(=O)c2ccccc2Cl)nc2ccccc2[n+]1[O-]` the value was 0.001% (inactive). As for `CCN(CC)S(=O)(=O)c1ccc(Cl)c(NC(=O)COC(=O)c2c(C)noc2C)c1`, the % fluorescent cells increase was 0.009% (inactive). The same measure, in the same setting: for `Oc1cccc(/C=N/NC(=S)NCCN2CCOCC2)c1O` the value was 0% (inactive); for `O=C(c1cnccn1)N1CC(=O)N2[C@H](CO)[C@@H](c3ccc(-c4cccc(F)c4)cc3)[C@@H]2C1`, -0.166% (inactive); for `CC(Sc1nnc(Cc2ccccc2)o1)C(=O)Nc1ccccc1[N+](=O)[O-]` (stereo not drawn), -0.011% (inactive). Still for that read-out and setting: for `O=C(COC(=O)c1ccc(NS(=O)(=O)c2cccs2)cc1O)NC1CCCCC1` the value was 0.547% (inactive); for `Cc1noc(C)c1S(=O)(=O)Nc1ccc2c(c1)C(=O)N([C@H](C)CO)C[C@H](C)[C@H](CN(C)C(=O)Nc1ccc(F)cc1)OCCCC[C@H](C)O2`, 0% (inactive); for `COc1ccc(Cl)cc1C(=O)Nc1ccccc1N1CCCCC1`, 2.45% (inactive). On the same count and under the same terms, for `O=C1C=CC(=O)C(CNc2ccc(C(=O)OCc3ccccc3)cc2)=C1` the value was 0% (inactive); for `CCOC(=O)c1ccc(NC(=O)C2CCC(CNc3c(N4CCOCC4)c(=O)c3=O)CC2)cc1` (stereo not drawn), 0.105% (inactive); for `Cn1c(=N)n(CC(=O)c2ccccc2)c2ccccc21`, 0% (inactive).

`COc1ccccc1-c1ccc(/C=N/O)o1`: the % fluorescent cells increase was 0% (inactive). Still for that read-out and setting: for `COCCNC(=S)N(Cc1cccnc1)Cc1ccc(OC)c(OC)c1` the value was 1.33% (inactive); for `O=C(Nc1cccc(S(=O)(=O)NC2=NCCC2)c1)C1CC(=O)N(c2ccc3c(c2)OCCO3)C1` (stereo not drawn), -0.007% (inactive).

With `CC(C)c1cc(C(=O)N/N=C/c2cccnc2)cs1`, the % fluorescent cells increase is -0.004% (inactive).

Consider `Nc1nc(Nc2ccc(Cl)cc2)c(NC=O)c(=O)[nH]1`, for which the % fluorescent cells increase was 18.8% (inactive). For the compound `COc1ccc(Nc2nc(N)c(C(=O)c3ccc(F)cc3)s2)cc1`, the % fluorescent cells increase was 0% (inactive). On the same count and under the same terms, for `CCN(CC)c1ccc(/C=C/C(=O)C2C(=O)C=C(C)OC2=O)cc1` (stereo not drawn) the value was 1.2% (inactive); for `C=CC[C@@H](CC(=O)N(CCO)Cc1ccccc1)C(=O)NCCOC(=O)[C@@H](CC=C)Cc1ccc(F)cc1`, 0.009% (inactive).

For `COc1ccc(/C=C\c2onc(C)c2S(=O)(=O)N2CCC(C(=O)NCc3ccco3)CC2)cc1`, the % fluorescent cells increase is 0.029% (inactive). The same measure, in the same setting: the result for `COCCN(C(=O)c1ccc2c(c1)C(=O)N(c1ccccc1Cl)C2=O)c1c(N)n(CC(C)C)c(=O)[nH]c1=O` reads 1.41% (inactive); that for `C[C@@H]1C[C@H]2[C@@H]3CCC4=CC(=O)C=C[C@]4(C)[C@@]3(F)[C@@H](O)C[C@]2(C)[C@H]1C(=O)CO`, 0% (inactive); that for `CCN(CC)c1ccc(N=Cc2ccc([N+](=O)[O-])o2)cc1`, 0.026% (inactive). On to `CC1CC(C)CN(C(=O)C(C)N2CCN(S(=O)(=O)c3ccccc3F)CC2)C1` (stereo not drawn), for which the % fluorescent cells increase was 0.338% (inactive). The same measure, in the same setting: the result for `COc1ccc2c3c(n(C)c2c1)[C@H](CO)N(Cc1ccccc1F)CC31CCN(CC2CC2)CC1` reads -0.126% (inactive). Same read-out and setting: the result for `COc1ccccc1C#Cc1ccc2c(c1)O[C@H](CN(C)Cc1cncnc1)[C@@H](C)CN([C@H](C)CO)S2(=O)=O` reads 0% (inactive). With `CCOc1ccc(NC(=S)NC(C)c2cccs2)cc1` (stereo not drawn), the % fluorescent cells increase was 0% (inactive).

For `CCOC(=O)C1=C(C)NC(=S)NC1/C=C/c1ccccc1` (stereo not drawn), the % fluorescent cells increase was -0.004% (inactive). Same read-out and setting: for `CC(=Nc1ccc(Cl)cc1N)c1c(O)cc(C)oc1=O` the value was 0.643% (inactive). The same measure, in the same setting: for `O=C(C[C@@H]1C[C@@H]2c3cc(NC(=O)C4CCC4)ccc3O[C@@H]2[C@@H](CO)O1)NCc1ccc(Cl)cc1` the value was 0.34% (inactive); for `CCCCn1nnnc1C(c1ccccc1)N1CCN(c2ccc(C)cc2)CC1` (stereo not drawn), -0.003% (inactive); for `Cc1nc(NC(=O)C(Cl)Cl)sc1C(=O)N(C)C`, 0% (inactive). Still for that read-out and setting: the result for `F[B-](F)(F)c1cnc2ccccc2c1` reads 0.137% (inactive).
